From patent US3963707A, “Novel N-nitroso compounds, compositions containing such compounds, processes for their preparation and methods of treatment therewith, and novel intermediates” (Aktiebolaget Leo, priority 1973, dated 1976)
Like-named read-outs stand apart in the source and are kept apart here.

Experiments:
utering weight = assay: Estrogenic effect in immature female mice; type: in vivo; conditions: for estrogenic activity, 17β-estradiol and its 3-acetate compared with each other: same kind of experiment
Description: (§1) The androgenic and estrogenic activities, as described below, are determined with established methods (see e.g. Dorfman, R.: Methods in Hormone Research, vol. II, Acad. Press, New York and London 1962, pp. 93 and 275).
The estrogenic effect is assayed in immature female mice. The animals receive the compounds once daily for three consecutive days, and on the 4th day the utering weight is determined.

[1] = test system: Lymphatic leukemia L 1210; assay: Lymphatic leukemia L 1210 test; type: in vivo, CDF1 (C3H×DBA/2)F1 mice; conditions: for Effect %: survival time as percentage of control; for Weight change v: vs control up to the 5th day; for effect on L 1210: result in words, dose not given
Description: (§2) The experimental design and the interpretation of the results have been in accordance with the standards set by the CCNSC (Cancer Chemotherapy Reports, January 1959 and December 1962), and by the DR&D (Cancer Chemotherapy Reports, September 1972, Vol. 3, No. 2).
(§3) The way of administration is by the intraperitoneal route (i.p.) in each case.
Lymphatic leukemia L 1210
Experimental animals: CDF1 (C3H×DBA/2)F1 mice.
Tumour implant: 10^5 tumour cells i.p.
Therapy: One injection i.p. on the day following implantation.
Evaluation: a) The survival time of the test animals (t) expressed as the percentage of that of control animals (c).
b. Weight change in the test animals (T) compared with that of the control animals (c) up to the 5th day.
c. The mortality rate must not exceed 35% in the test animals on the 5th day of therapy.

[2] = test system: Walker carcinosarcoma 256; assay: Walker carcinosarcoma 256 test; type: in vivo, Sprague Dawley rats; conditions: for Lethality: died/used animals
Description: as §2, §3
Walker carcinosarcoma 256
Experimental animals: Sprague Dawley rats.
Tumour implant: Tumour pieces with 2-4 mm diameter, subcutaneously.
Therapy: Daily injections i.p. for 5 days starting on the day following implantation.
Termination: The animals are killed on the 9th day.
Evaluation: Weights of tumours of test animals are compared with those of control animals. The differences, in per cent of weights of tumours of control animals, give per cent tumour inhibition.
The lethality is given as the number of animals which died in the experiment/the number of animals used in the experiments.

[3] = test system: Ehrlich ascites tumour, ELD hyperdiploid (46 chromosomes); assay: Ehrlich ascites tumour test (LD50, ED50, therapeutic index); type: in vivo, SPF NMRI mice; conditions: for anti-tumor activity: additional compounds, result in words; for T.I. (LD50/ED50): Ehrlich ascites, mice, i.p.; for ED50: Mus musculus, Ehrlich, ip
How it was run: (§4)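 SPF NMRI mice implanted i.p. with 2 × 10^6 Ehrlich ascites (ELD hyperdiploid) cells and given a single i.p. dose the next day; killed on day 8. ED50 = dose halving tumour weight versus controls, LD50 = dose lethal to 50%; T.I. = LD50/ED50.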

Hepatoma AH 130 = assay: in vivo; set-up: species or system SPF Wistar rats; conditions: for T.I. (LD50/ED50): Hepatoma AH 130, rats, i.p.; for ED50: Rattus norvegicus, ip, 192 h, one injection i.p. day after implantation, dose causing 50 percent reduction of tumour size
How it was run: (§5)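 SPF Wistar rats were implanted i.p. with 5 × 10^6 AH 130 cells and given one i.p. dose the next day. On day 8 they were killed and tumour weights were compared with controls. ED50 is the dose halving tumour size, LD50 the 50% lethal dose, and T.I. is LD50/ED50.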

in vivo = assay: in vivo; set-up: species or system SPF Wistar rats; conditions: rat, in vivo, ip; one injection i.p., rats; dose causing 50 percent lethality
How it was run: as §5

[4] = Ehrlich ascites tumour test (LD50, ED50, therapeutic index); type: in vivo, SPF NMRI mice; conditions: mouse, in vivo, ip; one injection i.p., mice; dose causing 50 percent lethality
How it was run: as §4

[5] = acute intraperitoneal toxicity in mice; cited from earlier work
ventral prostate = assay: Androgenic effect in castrated male rats; type: in vivo; conditions: subcutanous and intraperitoneal administration, 7 days
Description: as §1
The androgenic effect is assayed in castrated male rats. Beginning two weeks after castration the animals are given one daily injection of the compound for 7 days. The weight of the ventral prostate is determined on the 8th day.

[6] = one injection i.p. day after implantation, dose causing 50 percent reduction of tumour size, read-out: ED50

C[C@]12CC[C@@H]3c4ccc(O)cc4CC[C@H]3[C@@H]1CC[C@@H]2O [17β-estradiol, estra-1,3,5(10)-triene-3,17β-diol]
estrogenic activity, 17β-estradiol and its 3-acetate compared with each other (utering weight): about the same estrogenic activity

CC(=O)Oc1ccc2c(c1)CC[C@@H]1[C@@H]2CC[C@]2(C)[C@@H](O)CC[C@@H]12 [17β-estradiol-3-acetate]
estrogenic activity, 17β-estradiol and its 3-acetate compared with each other (utering weight): about the same estrogenic activity

C[C@]12CC[C@H]3[C@@H](CCC4=CC(=O)CC[C@@H]43)[C@@H]1CC[C@@H]2OC(=O)N(CCCl)N=O [19-nortestosterone-17β-N-(2-chloroethyl)-N-nitroso carbamate]
Mortality ([1]; 1×31 mg/kg i.p.): 0/40 | Effect % ([1]; 1×31 mg/kg i.p.): 142% | Weight change v ([1]; 1×31 mg/kg i.p.): -1.0 g | Tumour inhibition % ([2]; 5×63 mg/kg i.p.): 65% | Lethality ([2]; 5×63 mg/kg i.p.): 1/8 | anti-tumor activity [3]: exhibit anti-tumor activity | T.I. (LD50/ED50) (Hepatoma AH 130): 300 | ED50 (Hepatoma AH 130): 0.5 mg/kg | LD50 (in vivo): 150 mg/kg

CS(=O)(=O)OCCCCOS(C)(=O)=O [Busulfan, reference compound]
T.I. (LD50/ED50) [3]: 1.3 | ED50 [3, 6]: 55 mg/kg | LD50 [4]: 71 mg/kg

CCCCOC(=O)N(CCCl)N=O [CH3 (CH2)2 CH2 --]
LD50 [5]: 11 to 15 mg/kg

O=C(O)CCCc1ccc(N(CCCl)CCCl)cc1 [Chlorambucil, reference compound]
LD50 [4]: 33 mg/kg

O=P1(N(CCCl)CCCl)NCCCO1 (centres unmarked) [Cyclofosfamid, reference compound]
T.I. (LD50/ED50) [3]: 7.6 | ED50 [3]: 62 mg/kg | LD50 [4]: 470 mg/kg

O=NN(CCCl)C(=O)Oc1ccccc1 [Phenyl]
LD50 [5]: 3 to 7 mg/kg

C1CN1c1nc(N2CC2)nc(N2CC2)n1 [Triethylene-melamine, reference compound]
T.I. (LD50/ED50) [3]: 2.6 | ED50 [3, 6]: 1.03 mg/kg | LD50 [4]: 2.7 mg/kg

S=P(N1CC1)(N1CC1)N1CC1 [Triethylene-thiophosphoramide, reference compound]
T.I. (LD50/ED50) [3]: 1.5 | ED50 [3, 6]: 15 mg/kg | LD50 [4]: 22 mg/kg

C[C@]12CC[C@@H](OC(=O)N(CCCl)N=O)C[C@@H]1CC[C@@H]1[C@@H]2CC[C@]2(C)[C@@H](OC(=O)N(CCCl)N=O)CC[C@@H]12 [androstanediol-3α,17β-bis/N-(2-chloroethyl)-N-nitroso carbamate/]
effect on L 1210 [1]: show a significant effect | Tumour inhibition % ([2]; 5×250 mg/kg i.p.): 75% | Lethality ([2]; 5×250 mg/kg i.p.): 1/8 | anti-tumor activity [3]: exhibit anti-tumor activity | ED50 (Hepatoma AH 130): 1 mg/kg | LD50 (in vivo): > 1000 mg/kg

C[C@]12CC[C@@H](OC(=O)N(CCCl)N=O)C[C@@H]1CC[C@@H]1[C@@H]2CC[C@]2(C)C(=O)CC[C@@H]12 [androsterone-3α-N-(2-chloroethyl)-N-nitroso carbamate]
Mortality ([1]; 1×125 mg/kg i.p.): 0/20 | Effect % ([1]; 1×125 mg/kg i.p.): 153% | Weight change v ([1]; 1×125 mg/kg i.p.): -2.4 g | Tumour inhibition % ([2]; 5×250 mg/kg i.p.): 82% | Lethality ([2]; 5×250 mg/kg i.p.): 0/8 | anti-tumor activity [3]: exhibit anti-tumor activity | T.I. (LD50/ED50) (Hepatoma AH 130): > 100 | ED50 (Hepatoma AH 130): 10 mg/kg | LD50 (in vivo): > 1000 mg/kg

C[C@]12CCC(=O)C[C@@H]1CC[C@@H]1[C@@H]2CC[C@]2(C)[C@@H](OC(=O)N(CCCl)N=O)CC[C@@H]12 [dihydrotestosterone-17β-N-(2-chloroethyl)-N-nitroso carbamate]
Mortality ([1]; 1×125 mg/kg i.p.): 0/20 | Effect % ([1]; 1×125 mg/kg i.p.): 135% | Weight change v ([1]; 1×125 mg/kg i.p.): -0.9 g | Tumour inhibition % ([2]; 5×250 mg/kg i.p.): 51% | Lethality ([2]; 5×250 mg/kg i.p.): 0/8 | anti-tumor activity [3]: exhibit anti-tumor activity | ED50 (Hepatoma AH 130): 1 mg/kg | LD50 (in vivo): > 1000 mg/kg

C[C@]12CC[C@H](OC(=O)N(CCCl)N=O)C[C@@H]1CC[C@@H]1[C@@H]2CC[C@]2(C)C(=O)CC[C@@H]12 [epiandrosterone-3β-N-(2-chloroethyl)-N-nitroso carbamate]
Mortality ([1]; 1×250 mg/kg i.p.): 0/20 | Effect % ([1]; 1×250 mg/kg i.p.): 130% | Weight change v ([1]; 1×250 mg/kg i.p.): -1.6 g | Tumour inhibition % ([2]; 5×125 mg/kg i.p.): 47% | Lethality ([2]; 5×125 mg/kg i.p.): 0/8 | anti-tumor activity [3]: exhibit anti-tumor activity | T.I. (LD50/ED50) (Hepatoma AH 130): > 5.000 | ED50 (Hepatoma AH 130): 0.2 mg/kg | LD50 (in vivo): > 1000 mg/kg

CC(=O)Oc1ccc2c(c1)CC[C@@H]1[C@@H]2CC[C@]2(C)[C@@H](OC(=O)N(CCCl)N=O)CC[C@@H]12 [estradiol-3-acetate-17β-N-(2-chloroethyl)-N-nitroso carbamate]
Tumour inhibition % ([2]; 5×250 mg/kg i.p.): 74% | Lethality ([2]; 5×250 mg/kg i.p.): 1/8 | estrogenic effect compared with 17β-estradiol and 17β-estradiol-3-acetate (utering weight; given orally, subcutanously or intraperitoneally): about 10 times weaker | anti-tumor activity [3]: exhibit anti-tumor activity | T.I. (LD50/ED50) (Hepatoma AH 130): > 10 | ED50 (Hepatoma AH 130): 96 mg/kg | LD50 (in vivo): > 1000 mg/kg

COc1ccc2c(c1)CC[C@@H]1[C@@H]2CC[C@]2(C)[C@@H](OC(=O)N(CCCl)N=O)CC[C@@H]12 [estradiol-3-methylether-17β-N-(2-chloroethyl)-N-nitroso carbamate]
Tumour inhibition % ([2]; 5×250 mg/kg i.p.): 66% | Lethality ([2]; 5×250 mg/kg i.p.): 0/8 | anti-tumor activity [3]: exhibit anti-tumor activity | T.I. (LD50/ED50) (Hepatoma AH 130): > 2.000 | ED50 (Hepatoma AH 130): 0.5 mg/kg | LD50 (in vivo): > 1000 mg/kg

CC(=O)O[C@H]1CC[C@H]2[C@@H]3CCc4cc(OC(=O)N(CCCl)N=O)ccc4[C@H]3CC[C@]12C [estradiol-17β-acetate-3-N-(2-chloroethyl)-N-nitroso carbamate]
Tumour inhibition % ([2]; 5×125 mg/kg i.p.): 69% | Lethality ([2]; 5×125 mg/kg i.p.): 1/8 | anti-tumor activity [3]: exhibit anti-tumor activity | T.I. (LD50/ED50) (Hepatoma AH 130): > 4.000 | ED50 (Hepatoma AH 130): < 0.25 mg/kg | LD50 (in vivo): > 1000 mg/kg

C[C@]12CC[C@@H]3c4ccc(OC(=O)N(CCCl)N=O)cc4CC[C@H]3[C@@H]1CCC2=O [estrone-3-N-(2-chloroethyl)-N-nitroso carbamate]
effect on L 1210 [1]: show a significant effect | Tumour inhibition % ([2]; 5×125 mg/kg i.p.): 75% | Lethality ([2]; 5×125 mg/kg i.p.): 0/8 | anti-tumor activity [3]: exhibit anti-tumor activity | T.I. (LD50/ED50) (Hepatoma AH 130): > 2.000 | ED50 (Hepatoma AH 130): 0.5 mg/kg | LD50 (in vivo): > 1000 mg/kg

CC(=O)[C@H]1CC[C@H]2[C@@H]3CC=C4C[C@@H](OC(=O)N(CCCl)N=O)CC[C@]4(C)[C@H]3CC[C@]12C [pregnenolone-3β-N-(2-chloroethyl)-N-nitroso carbamate]
Mortality ([1]; 1×500 mg/kg i.p.): 0/20 | Effect % ([1]; 1×500 mg/kg i.p.): 136% | Weight change v ([1]; 1×500 mg/kg i.p.): -0.8 g | Tumour inhibition % ([2]; 5×500 mg/kg i.p.): 55% | Lethality ([2]; 5×500 mg/kg i.p.): 0/8 | anti-tumor activity [3]: exhibit anti-tumor activity | T.I. (LD50/ED50) (Hepatoma AH 130): > 526 | ED50 (Hepatoma AH 130): 1.9 mg/kg | LD50 (in vivo): > 1000 mg/kg

C[C@]12CC[C@H]3[C@@H](CCC4=CC(=O)CC[C@@]43C)[C@@H]1CC[C@@H]2OC(=O)N(CCCl)N=O [testosterone-17β-N-(2-chloroethyl)-N-nitroso carbamate]
androgenic effect compared with testosterone (ventral prostate): about the same androgenic effect as testosterone | Mortality ([1]; 1×125 mg/kg i.p.): 0/40 | Effect % ([1]; 1×125 mg/kg i.p.): 125% | Weight change v ([1]; 1×125 mg/kg i.p.): -1.8 g | Tumour inhibition % ([2]; 5×250 mg/kg i.p.): 64% | Lethality ([2]; 5×250 mg/kg i.p.): 0/8 | anti-tumor activity [3]: exhibit anti-tumor activity | T.I. (LD50/ED50) (Hepatoma AH 130): > 100 | ED50 (Hepatoma AH 130): 8 mg/kg | LD50 (in vivo): > 1000 mg/kg

O=NN(CCCl)C(=O)Oc1ccc2ccccc2c1 [β-Naphthyl]
LD50 [5]: 42 mg/kg
